This note sets out measurements from patent US20170304260A1, “ALTRENOGEST FORMULATION AND USES THEREOF FOR ESTRUS SYNCHRONISATION IN ANIMALS” (priority 2014, published 2017).

The nature of the data set: Storage stability of microcapsule emulsion / powder (Method 1, spray-drying). Type of data set: physicochemical. The following applies: liquid and dry form of the microcapsule emulsion, ambient temperature. The protocol:
Method 1: Dry Microcapsule Obtained by Atomisation (Spray-Drying)
The emulsion comprising the ingredients above was pre-homogenized with a Polytron™ homogenizer for 3 min at 9000 rpm, then homogenized with a two-stage Avestin™ homogenizer (3*5000 psi+1*500 psi).
Spray drying was performed under the following conditions: spray dryer BUCHI® Mini Spray Drier B-191 with a 2 mm nozzle diameter, air pressure of 60 psi. The emulsion was fed into the main chamber through peristatic pump, feed flow rate was 400 ml/h, inlet air temperature was 160° C. and outlet temperature was 65° C. The dried microcapsules were collected in a cyclone.
Particle size distribution of the final emulsion was less than 1 micron and the powder obtained by atomisation or freeze drying had good rehydration properties, low surface oil and low oxidation during the powder storage. Furthermore, the emulsion in liquid form containing 1.5% sodium caseinate and 15% sunflower oil was physically stable when pasteurized with no preservation agents added to it. Maltodextrin was used as a “wall material” to permit further drying of the emulsion. Additionally, the retention of Altrenogest was well preserved in both the liquid and dry form for a period of at least 5 months at ambient temperature.

For the compound `C=CC[C@]1(O)CC[C@H]2[C@@H]3CCC4=CC(=O)CCC4=C3C=C[C@@]21C` [Altrenogest], the “period over which retention of Altrenogest was well preserved” value is recorded as “at least 5 months”.
